From patent publication EP1268487B1, “TRICYCLIC PROTEIN KINASE INHIBITORS” (Wyeth, priority 2000, dated 2001)
≈ marks a conversion by molar mass, not a printed value.

Columns and labels:
c-Met = target: T1, c-Met (Homo sapiens, UniProt P08581); assay: DELFIA assay for c-Met receptor kinase inhibitors; assay type: biochemical
T1 construct: The cytoplasmic domain of c-Met was generated by reverse transcriptase-polymerase chain reaction; His tag (from pFastBac-HTc vector; purified on Ni-NTA/Talon); made in house; host or cells: Sf9 insect cells (baculovirus)
T1 sequence (P08581 956-1390 limits assumed): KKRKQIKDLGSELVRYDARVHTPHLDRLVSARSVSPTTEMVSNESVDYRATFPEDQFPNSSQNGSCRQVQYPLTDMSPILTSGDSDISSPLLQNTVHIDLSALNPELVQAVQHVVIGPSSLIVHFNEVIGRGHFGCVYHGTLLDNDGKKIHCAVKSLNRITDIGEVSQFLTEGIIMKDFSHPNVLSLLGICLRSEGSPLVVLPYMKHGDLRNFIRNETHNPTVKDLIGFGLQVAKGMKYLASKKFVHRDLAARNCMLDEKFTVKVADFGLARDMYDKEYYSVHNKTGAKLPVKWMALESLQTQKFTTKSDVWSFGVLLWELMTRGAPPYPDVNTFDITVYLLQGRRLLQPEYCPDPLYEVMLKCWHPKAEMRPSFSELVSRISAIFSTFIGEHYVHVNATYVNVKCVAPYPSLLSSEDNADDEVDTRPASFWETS
Experimental: The c-Met kinase assay was performed as a DELFIA (dissociation enchanced lanthanide fluorometric immunoassay), an ELISA-like protocol based upon time-resolved fluorometry as described previously [Braunwalder, A. F., Yarwood, D.R., Sills, M.A., and Lipson, K.E., Anal. Biochem. 238, 159-164 (1996)]. The protocol was adopted for the screening of inhibitors of the kinase activity of recombinant c-Met. [Loganzo, F., and. Hardy, C., American Biotechnology Laboratory 16(13), 26-28 (1998)]. The cytoplasmic domain of c-Met was generated by reverse transcriptase-polymerase chain reaction using RNA isolated from human mammary epithelial cells as template, cloned into the pFastBac-HTc vector (Life Technologies) and protein expressed in Sf9 insect cells by baculovirus infection. Protein was purified by imidazole elution from Ni-NTA resin (Invitrogen, Carlsbad, CA) or Talon resin (Clontech, Palo Alto, CA). Various conditions were evaluated for the kinase screening protocol and screening was accomplished with the following method. Polystyrene Maxisorp plates (Nunc) were pre-coated for 1 hour to overnight at room temperature with 5 µg/ml poly(Glu4-Tyr) diluted in Tris-buffered saline (TBS). Plates were washed 3X with TBS. c-Met protein preparation was diluted 1:80 into 0.1% BSA/ 4 mM HEPES. A master mix was prepared consisting of: 1 volume of diluted c-Met, 1 volume of 5X buffer (20 mM HEPES, pH 7.4; 2 mM MnCl2; 100 µM Na3VO4; 1 mM DTT), 0.9 volume of water. Master mix (29 µl) was added to the wells of peptide-coated microtiter plates. For assays where c-Met autophosphorylation was evaluated, plates were uncoated and c-Met was diluted into 4 mM HEPES at 1:40 without BSA. Compounds (1 µl) at various dilutions (1 mM to 0.1 µM) prepared in DMSO were added and mixed well with an automatic piptettor. After incubation 20 minutes at room temperature, the reaction was initiated with 20 µl of 62.5 µM ATP/ 50 mM MgCl2 (final 25 µM ATP/ 20 mM MgCl2 in assay). Reactions were incubated 45 minutes at room temperature. Plates were then washed 3X with 100 µl each of DELFIA wash buffer (Wallac). Antibody binding was performed by adding 75 µl of Europium-conjugated anti-phosphotyrosine diluted 1:2000 in Assay Buffer (Wallac) for 1 hour at room temperature. Plates were washed 3X with DELFIA wash buffer. Detection was done by addition of 100 µl of Enhancement Solution (Wallac). After 30 minutes, plates were read in a Wallac VICTOR-2 time-resolved fluorometer. Inhibition data was reported as europium counts for compound treated wells normalized to control counts. IC50 values were obtained by using log doses of compound and calculated using Data Analysis Toolbox software, version 1.0.2 (MDL Information Systems, Inc.).

A431 = assay: Inhibition of cancer cell growth as measured by cell number (Sulforhodamine B); assay type: cell-based; details: Homo sapiens, A-431; 48 hours exposure
Experimental: (§1) Human tumor cell lines were plated in 96-well plates (250 µl/well, 1-6 x 10^4 cells/ml) in RPMI 1640 medium, containing 5% FBS (Fetal Bovine Serum). […] After 48 hours exposure to test compounds, cells were fixed with trichloroacetic acid, and stained with Sulforhodamine B. After washing with trichloroacetic acid, bound dye was solubilized in 10 mM Tris base and optical density was determined using a plate reader. Under conditions of the assay the optical density is proportional to the number of cells in the well. IC50s (concentrations causing 50% inhibition of cell growth) were determined from the growth inhibition plots. The test procedure is described in details by Philip Skehan et. al, J.Natl. Canc. Inst., 82, 1107-1112 (1990). […] Information about some of the cell lines used in these test procedures is available from the American Type Tissue Collection: Cell Lines and Hybridomas, 1994 Reference Guide, 8th Edition. The Her2Neu cell line is a 3T3 line that has been transfected with Her2 receptor kinase.

SKBR3 = assay: as above; assay type: cell-based; details: Homo sapiens, SK-BR-3; 48 hours exposure
Experimental: as §1

SW620 = assay: as above; assay type: cell-based; details: Homo sapiens, SW-620; 48 hours exposure
Experimental: as §1

Her2Neu = assay: as above; assay type: cell-based; details: 48 hours exposure; 3T3 line transfected with Her2 receptor kinase
Experimental: as §1

MDA435 = assay: as above; assay type: cell-based; details: Homo sapiens, 48 hours exposure
Experimental: as §1

3T3 = assay: as above; assay type: cell-based; details: Mus musculus, NIH3T3; 48 hours exposure
Experimental: as §1

[1] = target: T2, Epidermal Growth Factor Receptor Kinase (EGF-R) (Homo sapiens, UniProt P00533); assay: Inhibition of Epidermal Growth Factor Receptor Kinase (EGF-R) using recombinant enzyme; assay type: biochemical; details: for inhibition at 0.5 µM: 0.5 µM concentration of test compound
T2 construct: containing the EGFR cDNA encoding amino acids 645 - 1186 preceded by Met-Ala-(His)6; Met-Ala-(His)6 (N); made in house; host or cells: Sf9 insect cells (baculovirus vHcEGFR52)
T2 sequence (P00533 669-1210): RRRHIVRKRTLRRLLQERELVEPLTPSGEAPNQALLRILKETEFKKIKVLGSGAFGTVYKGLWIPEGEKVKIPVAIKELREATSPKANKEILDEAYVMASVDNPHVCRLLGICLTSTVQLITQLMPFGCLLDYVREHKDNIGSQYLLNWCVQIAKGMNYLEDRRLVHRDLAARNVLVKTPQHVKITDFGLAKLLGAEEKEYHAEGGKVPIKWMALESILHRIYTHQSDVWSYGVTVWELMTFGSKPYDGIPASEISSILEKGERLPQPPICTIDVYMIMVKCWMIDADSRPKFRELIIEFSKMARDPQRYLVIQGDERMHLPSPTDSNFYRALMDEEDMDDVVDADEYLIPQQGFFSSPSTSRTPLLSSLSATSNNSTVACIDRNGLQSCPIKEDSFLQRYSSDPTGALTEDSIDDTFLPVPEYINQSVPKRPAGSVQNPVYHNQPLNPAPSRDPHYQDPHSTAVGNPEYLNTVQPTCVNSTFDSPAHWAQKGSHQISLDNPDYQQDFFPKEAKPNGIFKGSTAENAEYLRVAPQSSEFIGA
Experimental: Representative test compounds were evaluated for their ability to inhibit the phosphorylation of the tyrosine residue of a peptide substrate catalyzed by the enzyme epidermal growth factor receptor kinase. The peptide substrate (RR-SRC) has the sequence arg-arg-leu-ile-glu-asp-ala-glu-tyr-ala-ala-arg-gly. The enzyme used in this assay is the His-tagged cytoplasmic domain of EGFR. A recombinant baculovirus (vHcEGFR52) was constructed containing the EGFR cDNA encoding amino acids 645 - 1186 preceded by Met-Ala-(His)6. Sf9 cells in 100 mm plates were infected at an moi of 10 pfu/cell and cells were harvested 48 hours post infection. A cytoplasmic extract was prepared using 1% Triton X-100 and applied to Ni-NTA column. After washing the column with 20 mM imidazole, HcEGFR was eluted with 250 mM imidazole (in 50 mM Na2HPO4, pH 8.0, 300 mM NaCl). Fractions collected were dialyzed against 10 mM HEPES, pH 7.0, 50 mM NaCl, 10% glycerol, 1µg/mL antipain and leupeptin and 0.1 mM Pefabloc SC. The protein was frozen in dry ice/methanol and stored -70° C.
Test compounds were made into 10 mg/mL stock solutions in 100% dimethylsulfoxide (DMSO). Prior to experiment, stock solutions were diluted to 500 µM with 100% DMSO and then serially diluted to the desired concentration with HEPES buffer (30 mM HEPES pH 7.4).
For the enzyme reaction, 10 µL of each inhibitor (at various concentrations) were added to each well of a 96-well plate. To this was added 3 µL of enzyme (1:10 dilution in 10mM HEPES, pH 7.4 for final conc. of 1:120). This was allowed to sit for 10 minutes on ice and was followed by the addition of 5 µl peptide (80 uM final conc.), 10µl of 4X Buffer (Table A), 0.25 µL ^33P-ATP and 12 µL H2O. The reaction was allowed to run for 90 minutes at room temperature and was followed by spotting the entire volume on to precut P81 filter papers. The filter discs were washed 2X with 0.5% phosphoric acid and radioactivity was measured using a liquid scintillation counter. Table A
The inhibition data for representative compounds of the invention are shown below in TABLE 1. The IC50 is the concentration of test compound needed to reduce the total amount of phosphorylated substrate by 50%. The % inhibition of the test compound was determined for at least three different concentrations and the IC50 value was evaluated from the dose response curve. […] CPM(control) is in units of counts per minute and was a number expressing the amount of radiolabeled ATP (γ-^33P) incorporated into the RR-SRC peptide substrate by the enzyme after 90 minutes at room temperature in the absence of test compound as measured by liquid scintillation counting. The CPM values were corrected for the background counts produced by ATP in the absence of the enzymatic reaction. Where it was possible to determine an IC50 value, this is reported in TABLE 1 otherwise the % inhibition at 0.5 µM concentration of test compound is shown in TABLE 1.

inhibition at 10 µg/mL (c-Met) | IC50 (A431) | IC50 (SKBR3) | IC50 (SW620) | IC50 (Her2Neu) | IC50 (MDA435) | inhibition at 0.5 µM [1] | IC50 ([1]; recombinant enzyme) | Compound | IC50 (3T3)
42% | 1.9 mg/L (≈ 4.27 µM) | 2.53 mg/L (≈ 5.68 µM) | > 5 mg/L | > 5 mg/L | > 5 mg/L | 73% | 1 nM | N#Cc1cnc2cc3c(cc2c1Nc1ccc(F)c(Cl)c1)N(CCCCCl)CCO3 [Example 11, 1-(4-Chlorobutyl)-9-(3-chloro-4-fluoroanilino)-2,3-dihydro-1H-[1,4]oxazino[3,2-g]quinoline-8-carbonitrile] | 3.89 mg/L (≈ 8.74 µM)
66% | 0.47 mg/L (≈ 1.04 µM) | 0.649 mg/L (≈ 1.43 µM) | 1.5 mg/L (≈ 3.3 µM) | > 5 mg/L | 2.36 mg/L (≈ 5.2 µM) | 53.5% |  | CN(C)CCCCN1CCOc2cc3ncc(C#N)c(Nc4ccc(F)c(Cl)c4)c3cc21 [Example 12, 9-(3-Chloro-4-fluoroanilino)-1-[4-(dimethylamino)butyl]-2,3-dihydro-1H-[1,4]oxazino[3,2-g]quinoline-8-carbonitrile] | 1.49 mg/L (≈ 3.28 µM)
